Measured values: patent US9309242B2, “Substituted pyrido[2,3-b]pyrazines as FGFR kinase inhibitors” (priority 2011, dated 2016)

Tests used:
FGFR2 (h) = FGFR2 (h) (Homo sapiens, UniProt P21802); experiment: FGFR2 (enzymatic assay), TR-FRET; format: biochemical; conditions: enzymatic assay; read-out: FGFR 2 pIC50 (converted)
How it was run: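 hFGFR2 150 ng/ml; Btn-Flt3 500 nM; ATP 0.4 μM; 50 mM HEPES pH 7.5, 6 mM MnCl2, 1 mM DTT, 0.1 mM Na3VO4, 0.01% Triton-X-100; 1% DMSO final.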

[1] = target: T1, Ba/F3-KDR-transfected cells (Homo sapiens, UniProt P35968); experiment: Ba/F3-KDR (minus IL3) cellular proliferation assay, Alamar Blue; format: cell-based
T1 construct: BAF3-KDR (MIN IL3) pIC50; other: minus IL3
How it was run: (§1)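 Cells grown with test compound at 37° C and 5% CO2 for 24 hours were given a resazurin/ferricyanide/ferrocyanide reagent for 4 hours before fluorescence (540/590 nm) was recorded.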

[2] = test system: Ba/F3-KDR-transfected cells; experiment: Ba/F3-KDR (plus IL3) cellular proliferation assay, counterscreen with 10 ng/ml murine IL3; format: cell-based; conditions: plus IL3 (10 ng/ml murine IL3, counterscreen); read-out: BAF3-KDR (PLUS IL3) pIC50 (converted)
How it was run: as §1

Chain of FGFR2 (h) (P21802 22-821): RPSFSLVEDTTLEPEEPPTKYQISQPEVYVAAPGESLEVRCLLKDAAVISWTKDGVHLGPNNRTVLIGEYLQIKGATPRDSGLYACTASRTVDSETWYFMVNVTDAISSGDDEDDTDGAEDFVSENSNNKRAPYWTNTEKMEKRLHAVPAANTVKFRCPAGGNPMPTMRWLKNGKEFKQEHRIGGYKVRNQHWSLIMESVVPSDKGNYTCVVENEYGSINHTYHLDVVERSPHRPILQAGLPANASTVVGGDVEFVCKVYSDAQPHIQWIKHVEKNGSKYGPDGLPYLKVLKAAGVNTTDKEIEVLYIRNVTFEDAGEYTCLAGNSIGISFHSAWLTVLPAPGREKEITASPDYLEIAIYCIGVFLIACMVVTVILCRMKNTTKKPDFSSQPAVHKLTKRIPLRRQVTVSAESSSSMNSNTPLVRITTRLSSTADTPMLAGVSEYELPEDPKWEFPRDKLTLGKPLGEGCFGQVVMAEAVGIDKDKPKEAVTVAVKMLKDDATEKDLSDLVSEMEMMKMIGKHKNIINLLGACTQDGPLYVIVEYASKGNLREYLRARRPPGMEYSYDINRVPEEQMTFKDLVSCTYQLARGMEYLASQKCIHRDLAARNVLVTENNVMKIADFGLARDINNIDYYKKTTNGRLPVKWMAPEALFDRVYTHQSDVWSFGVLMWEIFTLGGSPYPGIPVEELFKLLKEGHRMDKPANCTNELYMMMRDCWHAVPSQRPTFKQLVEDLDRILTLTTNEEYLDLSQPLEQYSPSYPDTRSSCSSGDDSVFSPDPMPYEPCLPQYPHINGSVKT
T1 sequence (P35968 whole entry, change not shown): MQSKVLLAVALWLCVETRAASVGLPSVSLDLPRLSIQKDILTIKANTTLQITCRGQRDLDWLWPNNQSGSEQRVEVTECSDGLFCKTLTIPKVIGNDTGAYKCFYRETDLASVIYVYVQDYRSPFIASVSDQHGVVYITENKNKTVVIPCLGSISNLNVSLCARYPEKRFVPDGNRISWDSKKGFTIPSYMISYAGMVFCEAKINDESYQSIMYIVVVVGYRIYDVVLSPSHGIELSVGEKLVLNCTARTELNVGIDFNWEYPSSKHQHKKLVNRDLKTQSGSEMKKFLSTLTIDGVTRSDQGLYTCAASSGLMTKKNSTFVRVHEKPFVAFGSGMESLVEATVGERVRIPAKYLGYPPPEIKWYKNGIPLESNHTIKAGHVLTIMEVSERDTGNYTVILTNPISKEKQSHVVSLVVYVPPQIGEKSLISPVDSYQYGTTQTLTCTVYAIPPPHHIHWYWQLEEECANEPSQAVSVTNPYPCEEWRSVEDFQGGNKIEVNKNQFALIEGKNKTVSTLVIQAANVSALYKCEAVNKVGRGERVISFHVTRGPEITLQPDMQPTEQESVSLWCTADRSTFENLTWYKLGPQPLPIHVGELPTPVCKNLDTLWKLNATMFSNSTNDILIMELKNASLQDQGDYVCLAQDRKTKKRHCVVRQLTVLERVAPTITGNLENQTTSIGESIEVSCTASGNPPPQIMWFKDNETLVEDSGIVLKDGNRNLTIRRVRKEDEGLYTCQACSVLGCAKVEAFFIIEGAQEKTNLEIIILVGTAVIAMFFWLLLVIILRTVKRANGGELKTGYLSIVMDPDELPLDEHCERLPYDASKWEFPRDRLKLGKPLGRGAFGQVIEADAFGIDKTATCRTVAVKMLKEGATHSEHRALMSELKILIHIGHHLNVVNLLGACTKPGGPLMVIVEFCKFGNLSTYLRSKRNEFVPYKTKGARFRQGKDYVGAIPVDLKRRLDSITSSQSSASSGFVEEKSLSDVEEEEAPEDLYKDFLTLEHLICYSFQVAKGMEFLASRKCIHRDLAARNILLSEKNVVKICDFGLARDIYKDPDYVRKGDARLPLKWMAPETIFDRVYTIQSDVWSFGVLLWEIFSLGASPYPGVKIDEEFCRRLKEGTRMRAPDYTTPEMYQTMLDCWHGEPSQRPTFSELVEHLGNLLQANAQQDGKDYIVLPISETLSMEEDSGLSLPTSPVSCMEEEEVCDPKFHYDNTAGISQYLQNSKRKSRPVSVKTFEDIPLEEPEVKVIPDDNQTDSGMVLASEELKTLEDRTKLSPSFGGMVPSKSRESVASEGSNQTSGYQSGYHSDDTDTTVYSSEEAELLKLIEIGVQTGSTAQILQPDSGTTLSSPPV

Row | SMILES | IC50 (FGFR2 (h)) [nM] | BAF3-KDR (MIN IL3) pIC50 [1] | IC50 [2] [nM] | melting point [°C]
1 | COc1cc(/N=c2\ccc3ncc(-c4cnn(C)c4)nc3n2CC2CCOC2)c(F)c(OC)c1 (single isomer, unassigned) [Compound 169] | 1.62 | 6.40 | > 10000 | 80
2 | COc1cc(/N=c2\ccc3ncc(-c4cnn(CC(C)(C)O)c4)nc3n2CC(C)(C)O)c(F)c(OC)c1 (single isomer, unassigned) [Compound 207] | 2.51 | 6.11 | > 10000 | 154
3 | COc1cc(OC)c(F)c(N(CC2CCC(=O)N2CCO)c2ccc3ncc(-c4cnn(C)c4)nc3n2)c1 (single isomer, unassigned) [Compound 218] | 5.5 | 5.64 | > 10000 | 130
4 | COc1cc(OC)c(F)c(/N=c2\ccc3ncc(-c4cnn(C)c4)nc3n2CC2CCOC2)c1F (centres unmarked) [Compound 154] | 1.05 | 6.43 | > 10000 | 226
5 | COc1cc(OC)c(F)c(/N=c2\ccc3ncc(-c4cnn(C)c4)nc3n2CCN(C2COC2)C2COC2)c1F [Compound 164] | 1.82 | 6.86 | > 10000 | 218
6 | COc1cc(OC)c(F)c(N(CC#N)c2ccc3ncc(-c4cnn(C)c4)nc3n2)c1F [Compound 173] | 1.1 | 5.78 | > 10000 | 250
7 | COc1cc(OC)cc(N(Cc2noc(C)n2)c2ccc3ncc(-c4cnn(C)c4)nc3n2)c1 [Compound 186] | 2.57 | 5.20 | > 10000 | 177
8 | COc1cc(OC)cc(N(Cc2nnc(N)o2)c2ccc3ncc(-c4cnn(C)c4)nc3n2)c1 [Compound 188] | 1.35 | 5.63 | > 10000 | 246
9 | COc1cc(OC)c(F)c(N(CC2CCC(=O)N2CCO)c2ccc3ncc(-c4cnn(C)c4)nc3n2)c1 (centres unmarked) [Compound 194] | 12 | 5.18 | > 10000 | 102
10 | COc1cc(OC)cc(N(Cc2nnco2)c2ccc3ncc(-c4cnn(C)c4)nc3n2)c1 [Compound 217] | 5.89 | 5.18 | > 10000 | 240
11 | COc1cc(OC)cc(N(Cc2n[nH]c(=O)o2)c2ccc3ncc(-c4cnn(C)c4)nc3n2)c1 [Compound 229] | 5.62 | <5 | > 10000 | 232
12 | COc1cc(OC)c(F)c(N(CC(=O)NCCO)c2ccc3ncc(-c4cnn(C)c4)nc3n2)c1 [Compound 230] | 7.41 | 5.04 | > 10000 | 258
13 | COc1cc(OC)c(F)c(N(CC(=O)O)c2ccc3ncc(-c4cnn(C)c4)nc3n2)c1 [Compound 231] | 6.31 | <5 | > 10000 | > 260
14 | COc1cc(OC)c(F)c(N(CCO)c2ccc3ncc(-c4cnn(CCO)c4)nc3n2)c1 [Compound 233] | 1.7 | 5.90 | > 10000 | 194
